Laboratory results published in the supplement of paper PMC10307832.

Tests used:
Experiment in all cases: relative viability (nuclei count vs DMSO), 5 days (fraction); higher = more cells survive
[1] = compound: CC1=C(C(=O)N2C=CSC2=N1)CCN3CCC(=C(C4=CC=CC=C4)C5=CC=C(C=C5)F)CC3 + Cc1nc(NC(=O)N2CCC[C@H]2C(N)=O)sc1-c1ccnc(C(C)(C)C(F)(F)F)c1 [Alpelisib] (partner 2 µM)
Summary of the method: (§1)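 Lung cancer cell lines in 1536-well plates were dosed by pin tool the day after seeding, either with one drug alone or with a fixed anchor-drug dose plus five library-drug doses (not always all listed) in √10 steps. After 5 days, cells were fixed and their nuclei stained in one step (final 0.05% Triton X-100, 1% formaldehyde, 1 ug/ml Hoechst), then counted on 4× images. Relative viability is the nuclei count in treated wells divided by that in vehicle wells. Values are medians of duplicate plates.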

[2] = compound: CC1=C(C(=O)N2C=CSC2=N1)CCN3CCC(=C(C4=CC=CC=C4)C5=CC=C(C=C5)F)CC3 + Cc1cc(Nc2cc(N3CCN(C)CC3)nc(Sc3ccc(NC(=O)C4CC4)cc3)n2)n[nH]1 [Tozasertib] (partner 0.1 µM)
Summary of the method: as §1

[3] = compound: CC1=C(C(=O)N2C=CSC2=N1)CCN3CCC(=C(C4=CC=CC=C4)C5=CC=C(C=C5)F)CC3 + CCNC(=O)c1noc(-c2cc(C(C)C)c(O)cc2O)c1-c1ccc(CN2CCOCC2)cc1 [Luminespib] (partner 0.01 µM)
Summary of the method: as §1

[4] = compound: CC1=C(C(=O)N2C=CSC2=N1)CCN3CCC(=C(C4=CC=CC=C4)C5=CC=C(C=C5)F)CC3 + Cc1nc(Nc2ncc(C(=O)Nc3c(C)cccc3Cl)s2)cc(N2CCN(CCO)CC2)n1 [Dasatinib] (partner 0.075 µM)
Summary of the method: as §1

Row | Cell Line | relative viability ([1]; first compound 0.08 µM) | relative viability ([1]; first compound 0.253 µM) | relative viability ([1]; first compound 0.8 µM) | relative viability ([1]; first compound 2.53 µM) | relative viability ([1]; first compound 8 µM) | relative viability ([2]; first compound 0.08 µM) | relative viability ([2]; first compound 0.253 µM) | relative viability ([2]; first compound 0.8 µM) | relative viability ([2]; first compound 2.53 µM) | relative viability ([2]; first compound 8 µM) | relative viability ([3]; first compound 0.08 µM) | relative viability ([3]; first compound 0.253 µM) | relative viability ([3]; first compound 0.8 µM) | relative viability ([3]; first compound 2.53 µM) | relative viability ([3]; first compound 8 µM) | relative viability ([4]; first compound 0.08 µM) | relative viability ([4]; first compound 0.253 µM) | relative viability ([4]; first compound 0.8 µM) | relative viability ([4]; first compound 2.53 µM) | relative viability ([4]; first compound 8 µM)
1 | NCI-H322M | 0.769 | 0.85 | 0.897 | 0.804 | 0.8 | 0.487 | 0.468 | 0.443 | 0.561 | 0.529 | 0.768 | 0.899 | 0.928 | 0.888 | 0.81 | 0.267 | 0.238 | 0.246 | 0.254 | 0.27
2 | NCI-H358 | 0.821 | 0.912 | 0.744 | 1.07 | 0.553 | 0.0851 | 0.0942 | 0.0998 | 0.129 | 0.112 | – | 0.339 | 0.384 | 0.307 | 0.261 | 0.175 | 0.21 | 0.133 | 0.153 | 0.218
3 | NCI-H441 | – | 0.638 | 0.79 | 1.01 | 0.588 | 0.67 | 0.754 | 0.657 | 0.688 | 0.498 | 0.314 | 0.477 | 0.369 | 0.361 | 0.339 | 0.526 | 0.678 | 0.679 | 0.541 | 0.507
4 | NCI-H460 | 0.54 | 0.588 | 0.366 | 0.621 | 0.221 | 0.272 | 0.57 | 0.392 | 0.409 | 0.252 | 0.0343 | 0.034 | 0.0356 | 0.0314 | 0.0271 | 0.508 | 0.444 | 0.486 | 0.574 | 0.395
5 | NCI-H520 | 0.906 | 0.594 | 0.777 | 1.01 | 0.794 | 0.514 | 0.435 | 0.439 | 0.464 | 0.401 | 0.202 | 0.236 | 0.25 | 0.251 | 0.248 | 0.208 | 0.195 | 0.221 | 0.209 | 0.182
6 | NCI-H596 | 0.396 | 0.478 | 0.624 | 0.503 | 0.426 | 0.757 | 0.757 | 1.14 | 0.877 | 0.516 | 1.05 | 0.978 | 1.23 | 1.08 | 0.655 | 0.636 | 0.653 | 0.612 | 0.627 | 0.421
7 | NCI-H647 | 1.71 | 1.24 | 0.993 | 1.06 | 0.793 | 0.267 | – | 0.437 | 0.105 | 0.141 | 0.142 | 0.157 | 0.153 | 0.119 | 0.179 | 0.12 | 0.15 | 0.167 | 0.18 | 0.0953
8 | NCI-H650 | – | 1.12 | 1.29 | 1.09 | 0.794 | 0.695 | 0.801 | 0.748 | 0.723 | 0.689 | 0.573 | 0.827 | 0.951 | 0.877 | 0.683 | 0.474 | 0.504 | 0.388 | 0.546 | 0.46
